Source: patent US20260199484A1, “PROTAC DEGRADERS OF MLLT1 AND/OR MLLT3” (DARK BLUE THERAPEUTICS LTD, priority 2024, published 2026)

Legend:
[1] = system: MV4-11 cells; test: MV4-11 cellular proliferative assay, Assay Format B (CTG 2.0, 168 h); type: cell-based; conditions: Homo sapiens, Assay Method B, Table 7, read-out: MV4-11 Antiproliferation IC50
How it was run: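 Cells seeded at 600/well in IMDM + 10% FBS, incubated overnight, then exposed 168 h (7 days) at 37 °C to 10 concentrations, 3-fold dilutions from 1 uM or 100 nM top dose (0.3% DMSO final). Viability by CTG 2.0 luminescence as % of DMSO control; curves fitted by four-parameter logistic regression.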

[2] = system: human AML; test: in vivo mouse model of human AML (procedure of Example 112); conditions: oral administration, FIG. 1
[3] = molecular target: T1, MLLT3 (Mus musculus, UniProt A2AM29); test: MLLT3 degradation assay in NIH/3T3 cells (JESS, 5 h); type: cell-based
T1 construct: endogenous in cells; host or cells: NIH/3T3 (ATCC CRL-1658)
T1 sequence (A2AM29 1-569): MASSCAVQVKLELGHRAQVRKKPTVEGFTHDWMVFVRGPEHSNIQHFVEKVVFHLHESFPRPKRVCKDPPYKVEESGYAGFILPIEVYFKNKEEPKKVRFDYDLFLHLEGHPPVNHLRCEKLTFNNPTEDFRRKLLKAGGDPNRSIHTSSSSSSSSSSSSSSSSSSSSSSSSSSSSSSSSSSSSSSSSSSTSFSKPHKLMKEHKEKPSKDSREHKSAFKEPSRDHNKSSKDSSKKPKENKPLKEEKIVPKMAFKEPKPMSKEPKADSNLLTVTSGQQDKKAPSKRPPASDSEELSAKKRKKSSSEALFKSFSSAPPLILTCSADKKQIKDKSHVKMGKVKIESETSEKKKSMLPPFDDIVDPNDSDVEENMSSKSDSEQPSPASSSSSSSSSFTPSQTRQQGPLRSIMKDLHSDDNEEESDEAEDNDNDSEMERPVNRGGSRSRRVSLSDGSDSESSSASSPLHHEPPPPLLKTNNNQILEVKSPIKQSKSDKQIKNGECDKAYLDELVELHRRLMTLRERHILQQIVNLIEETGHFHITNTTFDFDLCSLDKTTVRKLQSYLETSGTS
Experimental: MLLT3 degradation efficacy of compounds was tested in an automated chemiluminescent detection system (JESS, Cat #004-650). NIH/3T3 (#CRL-1658, ATCC) were seeded at a density of 0.5 million cells/well in a cell culture treated 6-well cell culture plate in 2 mL of complete medium (DMEM+10% FBS+1× Penicillin-Streptomycin) and incubated at 37° C., 5% CO2. The next day, 10 mM DMSO stocks were prepared, and cells were treated with eight concentrations of test compounds, starting from 100 nM, 5-fold dilution, at a final DMSO concentration of 0.1% and incubated for 5 h at 37° C., 5% CO2. Post incubation, cells were washed with HBSS and lysed in 70 μL of RIPA buffer supplemented with Protease inhibitors (sc-24948; Santa Cruz). Later, protein estimation was done using BCA protein assay kit (23228; Pierce). 4 gg protein lysate (4 μL of 1 μg/μL lysate) was loaded into each well of the JESS cartridge (SM-W004; Bio-techne) and the JESS run was performed using 1:200 dilution of anti-mouse MLLT3 antibody (#47577; CST) and 1:800 dilution of anti-human GAPDH antibody (2118; Cell signaling technology) with anti-rabbit secondary detection module (DM-001; Bio-Techne). Post run, data was analysed using “Compass for SW” software for chemiluminescent detection. Peak fit was done using “dropped lines” method. […]

Cc1nn(CCCCCCCC#Cc2cccc3c2CN(C2CCC(=O)NC2=O)C3=O)c2cc(C(=O)Nc3cc4[nH]c([C@H]5CCCN5C)cc4cn3)ccc12 (mixture of isomers) [Example 1, 1-(9-(2-(2,6-dioxopiperidin-3-yl)-1-oxoisoindolin-4-yl)non-8-yn-1-yl)-3-methyl-N-(2-((R)-1-methylpyrrolidin-2-yl)-1H-pyrrolo[3,2-c]pyridin-6-yl)-1H-indazole-6-carboxamide]
IC50 [1]: 6.5 nM
tumour growth [2]: reduction in tumour growth
DC50 [3]: 1.6 nM
Dmax ([3]; NIH3T3, maximum % degradation observed): 85%
